Experimental data as given in article PMC9604546, “Drosophila HisT is a specific histamine transporter that contributes to histamine recycling in glia” (Science Advances, 2022).

Legend:
Format in all cases: cell-based
human OCT2 [1] = target: T1, human OCT2 (Homo sapiens, UniProt O15244); test: competition of [3H]-histamine uptake in transfected HEK293T cells; conditions: 2.5 uM [3H]-histamine, 30 min, 37 C, pH 7.4; competitor concentration for OCT2 not given
T1 construct: gene SLC22A2
T1 sequence (O15244 1-555): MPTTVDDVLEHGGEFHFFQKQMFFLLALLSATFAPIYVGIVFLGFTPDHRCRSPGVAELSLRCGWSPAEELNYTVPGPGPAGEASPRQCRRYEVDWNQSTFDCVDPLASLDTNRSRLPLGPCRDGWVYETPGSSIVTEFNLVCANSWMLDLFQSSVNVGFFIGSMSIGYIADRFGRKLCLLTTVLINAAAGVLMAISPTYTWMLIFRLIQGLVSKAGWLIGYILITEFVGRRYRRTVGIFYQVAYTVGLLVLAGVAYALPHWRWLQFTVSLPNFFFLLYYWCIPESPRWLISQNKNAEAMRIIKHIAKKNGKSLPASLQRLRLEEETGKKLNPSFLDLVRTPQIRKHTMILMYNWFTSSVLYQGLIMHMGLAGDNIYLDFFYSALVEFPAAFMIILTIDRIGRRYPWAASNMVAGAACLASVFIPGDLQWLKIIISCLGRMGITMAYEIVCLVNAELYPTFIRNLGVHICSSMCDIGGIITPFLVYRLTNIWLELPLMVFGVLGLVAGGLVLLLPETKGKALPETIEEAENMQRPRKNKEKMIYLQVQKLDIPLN

HisT (CG1358) = target: T2, HisT (CG1358) (Drosophila melanogaster, UniProt A0A0B4JD50); test: [3H]-histamine uptake in transfected HEK293T cells; conditions: labelled compound; 2.5 uM, 30 min, 37 C, pH 7.4, ECF buffer with 120 mM NaCl
T2 sequence (A0A0B4JD50 1-482): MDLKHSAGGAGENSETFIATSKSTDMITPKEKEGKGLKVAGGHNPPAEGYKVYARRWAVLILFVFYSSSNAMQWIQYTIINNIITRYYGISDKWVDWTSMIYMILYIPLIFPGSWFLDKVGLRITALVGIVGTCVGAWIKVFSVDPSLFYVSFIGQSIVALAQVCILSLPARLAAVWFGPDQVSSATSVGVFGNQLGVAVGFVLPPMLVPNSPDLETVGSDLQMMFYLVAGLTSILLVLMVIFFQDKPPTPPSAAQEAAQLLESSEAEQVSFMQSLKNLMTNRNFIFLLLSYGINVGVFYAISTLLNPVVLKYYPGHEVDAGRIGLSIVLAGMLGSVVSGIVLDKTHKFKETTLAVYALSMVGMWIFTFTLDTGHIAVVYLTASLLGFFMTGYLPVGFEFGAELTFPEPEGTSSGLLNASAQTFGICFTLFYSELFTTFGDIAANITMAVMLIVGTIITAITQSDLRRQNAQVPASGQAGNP

human OCT2 [2] = target: T1, human OCT2; test: [3H]-histamine uptake in transfected HEK293T cells; conditions: labelled compound; 2.5 uM, 30 min, 37 C, pH 7.4, ECF buffer with 120 mM NaCl

**Q.** How did the “inhibition of [3H]-histamine uptake” value (human OCT2 [1]) turn out when `NCCC(=O)NCCc1c[nH]cn1` [carcinine] was run?
**A.** OCT2-mediated [^3H]-histamine uptake was completely blocked by dopamine, serotonin, and carcinine

**Q.** How did the “inhibition of [3H]-histamine uptake” value (human OCT2 [1]) turn out when `NCCc1ccc(O)c(O)c1` [dopamine] was run?
**A.** OCT2-mediated [^3H]-histamine uptake was completely blocked by dopamine, serotonin, and carcinine

**Q.** `NCCc1c[nH]cn1` [histamine] was tested. Which “[3H]-histamine uptake in transfected HEK293T cells” value (HisT (CG1358)) did it give?
**A.** is the only transporter exhibiting histamine uptake activity in vitro

**Q.** What about the “[3H]-histamine uptake in transfected HEK293T cells” value (human OCT2 [2]) of the same compound?
**A.** OCT2), which mediates the low-affinity transport of some monoamine neurotransmitters including histamine

**Q.** How did the “inhibition of [3H]-histamine uptake” value (human OCT2 [1]) turn out when `NCCc1c[nH]c2ccc(O)cc12` [serotonin] was run?
**A.** OCT2-mediated [^3H]-histamine uptake was completely blocked by dopamine, serotonin, and carcinine
